Results reported in ChEMBL document CHEMBL4257562, “Pseudomonas aeruginosa Quorum Sensing Systems as Drug Discovery Targets: Current Position and Future Perspectives” (J Med Chem, 2018).

Assays:
[1] = Antagonist activity at Pseudomonas aeruginosa His6/Sumo-tagged PqsR by beta-galactosidase reporter gene assay
[2] = Antagonist activity at Escherichia coli His6/Sumo-tagged PqsR by beta-galactosidase reporter gene assay
[3] = biological target: T1, 2-heptyl-4(1H)-quinolone synthase PqsD (Pseudomonas aeruginosa, UniProt A0A0C7ACN7); assay: Inhibition of Pseudomonas aeruginosa PqsD
T1 sequence (A0A0C7ACN7 whole entry): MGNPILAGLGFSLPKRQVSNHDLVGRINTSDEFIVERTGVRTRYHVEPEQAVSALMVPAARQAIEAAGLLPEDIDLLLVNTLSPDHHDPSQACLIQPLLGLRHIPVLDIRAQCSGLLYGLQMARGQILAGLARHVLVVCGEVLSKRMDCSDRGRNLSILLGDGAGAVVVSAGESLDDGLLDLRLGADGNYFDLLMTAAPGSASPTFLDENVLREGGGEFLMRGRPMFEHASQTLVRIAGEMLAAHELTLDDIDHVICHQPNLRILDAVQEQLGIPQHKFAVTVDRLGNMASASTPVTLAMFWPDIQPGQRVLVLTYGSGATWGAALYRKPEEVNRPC

Pseudomonas aeruginosa [4] = assay: Antibiofilm activity against Pseudomonas aeruginosa PA14 at 100 uM; type: functional
[5] = Antagonist activity at Escherichia coli DH5alpha PqsR by beta-galactosidase reporter gene assay
[6] = biological target: T2, Transcriptional activator protein LasR (Pseudomonas aeruginosa (strain ATCC 15692 / PAO1 / 1C / PRS 101 / LMG12228), UniProt P25084); assay: Antagonist activity at LasR in Pseudomonas aeruginosa PAO1 harboring GFP-fused quorum sensing lasB measured every 15 mins for 14 hrs by GFP reporter gene assay
T2 sequence (P25084 whole entry): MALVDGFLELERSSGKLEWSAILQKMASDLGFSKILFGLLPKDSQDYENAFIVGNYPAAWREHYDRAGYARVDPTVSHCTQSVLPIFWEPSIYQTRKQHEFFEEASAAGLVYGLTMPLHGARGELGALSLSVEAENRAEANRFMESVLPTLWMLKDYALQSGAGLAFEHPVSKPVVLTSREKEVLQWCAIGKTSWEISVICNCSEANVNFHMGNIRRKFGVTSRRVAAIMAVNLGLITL

[7] = biological target: T2, Transcriptional activator protein LasR; assay: Inhibition of LasR in Pseudomonas aeruginosa reporter strain harboring gfp-lasB
[8] = Antagonist activity at Escherichia coli LasR assessed as inhibition of protein interaction with OdDHL by beta-galactosidase reporter gene assay
Pseudomonas aeruginosa [9] = assay: Inhibition of Pseudomonas aeruginosa quorum sensing system assessed as decrease in 3OC12-HSL production at 6 mM relative to control
Pseudomonas aeruginosa [10] = assay: Inhibition of Pseudomonas aeruginosa quorum sensing system assessed as decrease in C4-HSL production at 6 mM relative to control
[11] = biological target: T2, Transcriptional activator protein LasR; assay: Antagonist activity at GFP-fused LasR in Pseudomonas aeruginosa PAO-JP2 co-expressing LVAgfp plasmid by fluorescence assay
[12] = biological target: T2, Transcriptional activator protein LasR; assay: Antagonist activity at LasR in Pseudomonas aeruginosa reporter strain
[13] = biological target: T1, 2-heptyl-4(1H)-quinolone synthase PqsD; assay: Antagonist activity at Pseudomonas aeruginosa PqsD
[14] = biological target: T3, Transcriptional activator protein LasR (Pseudomonas aeruginosa (strain ATCC 15692 / PAO1 / 1C / PRS 101 / LMG12228)) (UniProt P25084); assay: Inhibition of OC12-HSL-dependent LasR activation in Pseudomonas aeruginosa MH602 harboring GFP-fused quorum sensing lasB at 250 uM measured every 30 mins up to 15 hrs by GFP reporter gene assay
T3 sequence (whole entry): T2 sequence (P25084 whole entry)

[15] = biological target: T2, Transcriptional activator protein LasR; assay: Antagonist activity at Pseudomonas aeruginosa LasR expressed in Escherichia coli DH5alpha assessed as inhibition of protein interaction with OdDHL after 1.5 hrs by beta-galactosidase reporter gene assay
[16] = biological target: T2, Transcriptional activator protein LasR; assay: Antagonist activity at Pseudomonas aeruginosa MW1 LasR assessed as inhibition of protein interaction with OdDHL by beta-galactosidase reporter gene assay
[17] = Inhibition of Pseudomonas aeruginosa PqsBC assessed as decrease in conversion of 2-ABA/octanoyl-CoA to HHQ measured every 60 secs
[18] = Inhibition of Pseudomonas aeruginosa PqsR
Escherichia coli = assay: Antagonist activity at Escherichia coli LasR at 6 uM by luciferase reporter gene assay
Pseudomonas aeruginosa [19] = assay: Inhibition of Pseudomonas aeruginosa PQS signaling at 138 uM relative to control
[20] = biological target: T3, Transcriptional activator protein LasR (Pseudomonas aeruginosa (strain ATCC 15692 / PAO1 / 1C / PRS 101 / LMG12228)); assay: Antagonist activity at Pseudomonas aeruginosa LasR expressed in Pseudomonas putida F117 assessed as inhibition of 3-oxo-C12-HSL-induced protein activation at 20 uM after 4 hrs by fluorescence assay relative to control
[21] = biological target: T4, HTH-type quorum-sensing regulator RhlR (Pseudomonas aeruginosa (strain ATCC 15692 / PAO1 / 1C / PRS 101 / LMG12228)) (UniProt P54292); conditions: 2.27 mM
T4 sequence (whole entry): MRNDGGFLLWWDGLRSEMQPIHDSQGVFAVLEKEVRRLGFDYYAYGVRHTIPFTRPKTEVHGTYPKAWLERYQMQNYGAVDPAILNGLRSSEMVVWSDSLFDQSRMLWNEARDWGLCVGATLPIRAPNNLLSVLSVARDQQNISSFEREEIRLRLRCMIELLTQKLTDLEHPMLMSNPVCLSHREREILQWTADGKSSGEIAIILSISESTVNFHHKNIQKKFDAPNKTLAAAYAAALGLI
Description: Antagonist activity at Pseudomonas aeruginosa PAO1 GFP-fused RhlR expressed in Escherichia coli DH5alpha co-expressing rhlA promoter assessed as inhibition of L-arabinose-induced C4-HSL production at 2.27 mM after 5 hrs relative to control

[22] = biological target: T1, 2-heptyl-4(1H)-quinolone synthase PqsD; assay: Binding affinity to recombinant Pseudomonas aeruginosa PqsD at 298 K by ITC assay
[23] = biological target: T1, 2-heptyl-4(1H)-quinolone synthase PqsD; assay: Inhibition of recombinant Pseudomonas aeruginosa PqsD expressed in Escherichia coli using anthraniloyl-CoA as substrate assessed as decrease in HHQ production
[24] = biological target: T5, Acyl-homoserine-lactone synthase (Pseudomonas aeruginosa (strain ATCC 15692 / PAO1 / 1C / PRS 101 / LMG12228)) (UniProt P33883); assay: Inhibition of Pseudomonas aeruginosa PAO1 LasI after 10 mins by beta-galactosidase reporter gene assay
T5 sequence (whole entry): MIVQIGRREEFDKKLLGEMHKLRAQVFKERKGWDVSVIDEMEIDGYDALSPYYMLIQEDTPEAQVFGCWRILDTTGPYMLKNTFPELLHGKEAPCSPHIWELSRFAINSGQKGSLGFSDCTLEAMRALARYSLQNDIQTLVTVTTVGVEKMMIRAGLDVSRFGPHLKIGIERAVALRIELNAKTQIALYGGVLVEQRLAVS

[25] = biological target: T3, Transcriptional activator protein LasR (Pseudomonas aeruginosa (strain ATCC 15692 / PAO1 / 1C / PRS 101 / LMG12228)); assay: Non-competitive inhibition of Pseudomonas aeruginosa LasR expressed in Escherichia coli; conditions: concentration not given here
[26] = biological target: T4, HTH-type quorum-sensing regulator RhlR (Pseudomonas aeruginosa (strain ATCC 15692 / PAO1 / 1C / PRS 101 / LMG12228)); assay: Non-competitive inhibition of Pseudomonas aeruginosa RhlR expressed in Escherichia coli; conditions: concentration not given here
Pseudomonas aeruginosa [27] = assay: In vivo inhibition of Pseudomonas aeruginosa PA14 PqsR in immunocompetent acute mouse thigh infection model assessed as decrease in PQS levels in plasma at 200 mg/kg, po administered at 2, 10, 18 and 26 hrs post infection measured at 12 hrs relative to control; type: functional
[28] = Antagonist activity at Pseudomonas aeruginosa PqsR
[29] = biological target: T2, Transcriptional activator protein LasR; assay: Antagonist activity at Pseudomonas aeruginosa LasR expressed in Escherichia coli DH5alpha assessed as inhibition of […]-induced receptor activation after 4 hrs by Miller-type beta-galactosidase reporter gene assay
[30] = biological target: T6, HTH-type quorum-sensing regulator RhlR (Pseudomonas aeruginosa (strain ATCC 15692 / PAO1 / 1C / PRS 101 / LMG12228), UniProt P54292); assay: Inhibition of Pseudomonas aeruginosa GFP-fused RhlR expressed in Escherichia coli BL21-Gold (DE3) co-expressing rhlA promoter by beta-galactosidase reporter gene assay
T6 sequence (P54292 whole entry): T4 sequence (whole entry)

[31] = Inhibition of Pseudomonas aeruginosa PA14 PqsBC catalytic activity using 2-ABA/octanoyl-CoA as substrate after 5 mins
[32] = biological target: T2, Transcriptional activator protein LasR; assay: Inhibition of LasR in Pseudomonas aeruginosa harboring GFP-fused quorum sensing lasB measured every 15 mins up to 12 hrs by GFP reporter gene assay

## CC(C)(C)c1ccc(C(=O)NO)cc1
[1]
  IC50: 23.6 µM
[2]
  IC50: 12.5 µM

## CCCCCCS(=O)(=O)c1ncc(-n2ccnn2)cn1
[3]
  IC50: 1.7 µM
Pseudomonas aeruginosa [4]
  Activity: 60%

## CCCCCCCc1cc(=O)c2cc([N+](=O)[O-])ccc2[nH]1
[5]
  IC50: 0.051 µM

## Nc1nc2nn[nH]c2c(=O)[nH]1 [8-AZAGUANINE]
[6]
  IC50: 0.64 µM

## C=CCSS/C=C/C[S+]([O-])CC=C (configuration not stated) [AJOENE]
[7]
  IC50: 15 µM

## O=C(NCCc1ccc(Br)cc1)c1ccccc1[N+](=O)[O-]
[8]
  IC50: 4.8 µM

## CN(C)CCc1ccc(O)cc1
Pseudomonas aeruginosa [9]
  inhibition: 30%
Pseudomonas aeruginosa [10]
  inhibition: 70%

## O=C(CCCc1c[nH]c2ccccc12)N[C@H]1CCOC1=O
[11]
  IC50: 16.1 µM

## O=C(N[C@H]1CCOC1=O)c1ccc(-n2cc(CSc3ccccc3)nn2)cc1
[12]
  IC50: 2.64 µM

## O=C(CCSc1ccc(Cl)cc1)N[C@H]1CCOC1=O
[12]
  IC50: 5.2 µM

## O=C(Nc1ccccc1C(=O)O)c1ccc(-c2ccccc2)c(Oc2ccccc2)c1
[13]
  IC50: 35 µM

## CCN(CC)S(=O)(=O)c1cc(C(=O)Nc2ccccc2C(=O)O)ccc1Br
[13]
  IC50: 65 µM

## CCOC(=O)CNC(=O)C(=O)c1ccccc1Nc1ccc([N+](=O)[O-])cc1[N+](=O)[O-]
[14]
  inhibition: 48%

## O=C(CCCC1CCCCC1)N[C@H]1CCOC1=O
[15]
  IC50: 10 µM

## CCCCCCCCNC(=O)CC(=O)c1ccccc1
[16]
  IC50: 10 µM

## CC(=O)c1ccccc1N [2-AMINOACETOPHENONE]
[17]
  EC50: 46 µM

## CCCCc1cn(CC(=O)N[C@H]2CCOC2=O)nn1
[12]
  IC50: 3.27 µM

## CS(=O)(=O)c1ncc(-n2cnnn2)cn1
[3]
  IC50: 21 µM
[18]
  IC50: 15 µM

## CCCCCCCSCC(=O)N[C@H]1CCOC1=O
Escherichia coli
  inhibition: 50%

## NCCCCCCCCCCCCNc1ccnc2cc(Cl)ccc12
Pseudomonas aeruginosa [19]
  inhibition: 81%

## CCCCCCCc1cc(=O)c2cc(C(F)(F)F)ccc2[nH]1
[5]
  IC50: 0.054 µM

## NC(=O)SCNc1cccc(Cl)c1
[20]
  inhibition: 50 to 60%

## C[S+]([O-])CCCCN=C=S (configuration not stated)
[21]
  inhibition: 42.1%

## O=[N+]([O-])c1ccccc1C(O)c1ccccc1 (configuration not stated)
[22]
  Kd: 13 µM
[23]
  IC50: 3.2 µM

## O=C(Cc1ccc(Br)cc1)N[C@H]1CCOC1=O
[11]
  IC50: 14.8 µM

## CCCCCCC/C=C1\SC(=O)NC1=O
[24]
  inhibition: 40%

## O=c1cc(-c2ccccc2)oc2c(O)c(O)ccc12
[25]
  inhibition: > 70%
[26]
  inhibition: > 70%

## NC(=O)c1cc2cc(Cl)ccc2cc1OCC(=O)c1c[nH]c2cc(C3CC3)ccc12
Pseudomonas aeruginosa [27]
  inhibition in vivo at 200 mg/kg: 50%

## CCCCCC(=O)Nc1c(-c2ccccc2)[nH]c2ccccc12
[14]
  inhibition: 65%

## CCCCCCCC(=O)N[C@H]1CCOC1=O
[15]
  IC50: 0.34 µM

## O=C(Cc1cccc(I)c1)N[C@H]1CCOC1=O
[15]
  IC50: 1.72 µM

## CS(=O)(=O)c1ncc(-n2cc(C(O)C3CCCC3)nn2)cn1 (configuration not stated)
[28]
  IC50: 26 µM

## NC(=O)SCNc1ccccc1O
[20]
  inhibition: 50 to 60%

## CCCCCCCOc1ccc(C(=O)N[C@H]2CCOC2=O)cc1
[15]
  IC50: 1 µM

## Nc1cccc(-n2cc(CCC(=O)N[C@H]3CCOC3=O)nn2)c1
[12]
  IC50: 4.03 µM

## O=C(CCCCCCCCCN=C=S)CC(=O)N[C@H]1CCOC1=O
[29]
  IC50: 134 µM

## O=C(CCCCOc1cccc(Br)c1)NC1CCSC1=O (configuration not stated)
[30]
  IC50: 8 µM

## Cc1ccc2nc(SCC(=O)Nc3ccc(Br)cc3)[nH]c2c1
[31]
  IC50: 12.5 µM

## Nc1ccc(S(=O)(=O)Nc2nccs2)cc1 [SULFATHIAZOLE]
[32]
  IC50: 9 µM

## O=C(CCc1ccc(Br)cc1)N[C@H]1CCOC1=O
[15]
  IC50: 0.25 µM

## O=C(CSc1nc2ccc([N+](=O)[O-])cc2[nH]1)Nc1ccc(I)cc1
[31]
  IC50: 13.4 µM
